Patent US20160166679A1, “METHOD OF TREATMENT USING FOLATE CONJUGATES AND TYROSINE KINASE INHIBITORS” (Purdue Research Foundation, priority 2014, published 2016)

Legend:
L1210A tumors = assay: Tyrosine kinase inhibitor/folate-FITC combination therapy in L1210A tumor-bearing mice; assay type: in vivo, mouse (DBA/2); details: for tumor volume plot: position of the line at the longest duration (PBS control topmost): FIG. 16; for tumor volume plot: position of the line at the longest duration (PBS control second line from the bottom): FIG. 4
Description: The effect of the combination therapy strategy of Example 1 was evaluated on an alternative tumor type. The […] lymphocytic leukemia cell line was selected due to its high FR expression levels and its ability to grow in immune competent mice. Female DBA/2 mice (purchased from Harlan Laboratories in Indianapolis, Ind.) were used in this model. Mice were injected subcutaneously with 1×10^6 cells suspended in PBS on the left flank. […] Doses of 500 nmols/Kg of folate-FITC in phosphate buffered saline (PBS) by intraperitoneal injection were used in the folate-FITC alone treatment and the combination treatment.
All treatment groups were terminated when tumors in the PBS control group reached 1500 mm^3 and tumors and spleens were harvested for analysis. The excised tumors were digested using a collagenase cocktail and single cell suspensions were stained for the presence of FR, macrophages, MDSC, and T cells and analyzed by flow cytometry. The intra-tumoral vasculature content in mice treated with PBS, folate-FITC alone, sunitinib alone, or a combination of folate-FITC and sunitinib was imaged, as shown in FIG. 6. […] Portions of each tumor were also cryopreserved for sectioning and immunohistochemistry staining. Harvested spleens were also processed into single cell suspensions and analyzed for immune cell content. The percentage of CD4+ and CD8+ cytotoxic T cell in spleens of L1210A tumor-bearing mice treated with PBS, folate-FITC alone, sunitinib alone, or a combination of folate-FITC and sunitinib was determined, as shown in FIG. 5.
A second RTK inhibitor, axitinib, was studied in combination with folate-FITC on one of the tumor models. The combination therapy was tested in the L1210A lymphoma model following the experimental methods detailed in Example 2, using an axitinib concentration of 15 mg/Kg administered daily by oral gavage in place of sunitinib. The groups of mice were treated with PBS, folate-FITC alone (500 nmols/Kg of folate-FITC in phosphate buffered saline), axitinib alone, or a combination of folate-FITC and axitinib. Average weights of tumors and spleens of L1210A tumor-bearing mice are shown in FIGS. 17 and 18, respectively.

M109 tumors = assay: Sunitinib/folate-FITC combination therapy in the M109 lung cancer model; assay type: in vivo, mouse (Balb/c); details: M109 tumor-bearing mice; FIG. 11
Description: Solid M109 lung tumors were established on the shoulders of KLH-FITC immunized Balb/c mice (5-6 weeks old from Harlan Laboratories, Indianapolis, Ind.) by injecting them subcutaneously with 1×10^6 of syngeneic M109 cells suspended in media containing 1% female Balb/c serum. The mice were treated according to the same dosing schedule described in Examples 1 and 2. The groups of mice were treated with PBS, folate-FITC alone (500 nmols/Kg of folate-FITC in phosphate buffered saline), sunitinib alone, or a combination of folate-FITC (500 nmols/Kg of folate-FITC in phosphate buffered saline) and sunitinib. Following completion of the study and termination of treatment, the treated animals were sacrificed and tumors and spleens were harvested for analysis as described in Example 2.

Renca tumors = assay: Sunitinib/folate-FITC combination therapy in Renca tumor-bearing mice; assay type: in vivo, mouse (Balb/c); details: FIG. 2
Description: In order to test the effect of combining Sunitinib with folate-targeted immunotherapy on tumor regression in a clinically representative model, the combination therapy was evaluated in Renca tumors, a mouse syngeneic kidney cancer cell line. Renca cells were maintained in a folate deficient cell culture medium and were selected for high folate receptor (FR) expression via multiple steps of cell sorting before being used in therapeutic studies. […] In turn, folate-FITC was used as a folate-hapten conjugate in the therapeutic studies. Female Balb/c mice aged 5-6 weeks were purchased from Harlan Laboratories in Indianapolis, Ind. After allowing one week for the mice to acclimate to their environment, they were vaccinated with 35 ug KLH-FITC in 50 ug GPI-0100 as adjuvant. […]
Several days before the third immunization, each mouse was injected subcutaneously on the left flank with 1×10^6 Renca cells in serum free medium. […] Treatment was initiated when tumors measured 50 mm^3. […] Tumor sizes were measured using digital calipers on alternating days, and tumor volumes were calculated using the equation ½ (L×W^2).
Once it was determined that a study needed to be suspended due to tumor size, all animals in the treatment groups were euthanized within 1-2 days and their tumors and spleens harvested for freezing and analysis by flow cytometry. […]

SMILES | tumor volume plot: position of the line at the longest duration (PBS control topmost) (L1210A tumors; axitinib study) | average weights of spleens (L1210A tumors; axitinib study, FIG. 18) | tumor volume plot: position of the line at the longest duration (PBS control second line from the bottom) (L1210A tumors; sunitinib study) | average weights of spleens (L1210A tumors; sunitinib study, FIG. 9) | tumor volume plot: position of the line at the longest duration (PBS control topmost) (M109 tumors) | tumor volume plot: position of the line at the longest duration (PBS control topmost) (Renca tumors)
CNC(=O)c1ccccc1Sc1ccc2c(/C=C/c3ccccn3)n[nH]c2c1 [axitinib] | second line from the bottom | swelling of the spleens | – | – | – | –
Nc1nc2ncc(CNc3ccc(C(=O)NC(CCC(=O)NCCNC(=S)Nc4ccc(-c5c6ccc(=O)cc-6oc6cc(O)ccc56)c(C(=O)O)c4)C(=O)O)cc3)nc2c(=O)[nH]1 (stereo not drawn) [folate-FITC] | second topmost line | swelling of the spleens | topmost line | swelling of the spleens | second line from the bottom | second topmost line
CCN(CC)CCNC(=O)c1c(C)[nH]c(/C=C2\C(=O)Nc3ccc(F)cc32)c1C [sunitinib] | – | – | second topmost line | swelling of the spleens | second topmost line | second line from the bottom
